For orientation: IC50 means the concentration that inhibits the measured activity by half. The low end stands for inhibition by little substance, the high end for a need for much substance. Broadly, the EC50 is the concentration at which the effect is half-maximal.

The source of these data is patent US12264156B2, “Compounds and pharmaceutical compositions thereof for the treatment of diseases” (GALAPAGOS NV, priority 2018, dated 2025).

The target in test [1] is T1, SIK2 (Homo sapiens, UniProt Q9H0K1).
T1 construct: purchased ThermoFisher Scientific PV4792
The test can be described thus: ADP-Glo kinase assay, SIK2. The note with it: ADP-Glo SIK kinase assay. It counts as biochemical. In a few lines:
(§1)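 ADP-Glo, RT throughout. Enz/substrate + ATP, 120 min; ADP-Glo reagent 40 min (ATP depletion); detection reagent 30 min; luminescence read. Neg ctrl 1% DMSO, pos ctrl 10 μM staurosporine, final concs.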
Background: ADP-Glo turns the ADP formed in a reaction into a luminescent signal.

For test [2], the target named is T2, SIK3 (Homo sapiens, UniProt Q9Y2K2).
T2 construct: purchased SignalChem S12-11G-100
Description: ADP-Glo kinase assay, SIK3. Format: biochemical. The note with it: ADP-Glo SIK kinase assay. In a few lines: as §1

Test [3] relates to LPS-induced TNFα in monocyte-derived macrophages (MdM). Description: MdM assay: LPS-triggered TNFα (ELISA). Format: cell-based, human. In a few lines: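 Human monocyte-derived macrophages from CD14+ bead-selected buffy-coat PBMCs, used on day 10, pre-treated with compound for 1 h at 37 °C (0.2% DMSO), then stimulated with 200 ng/mL LPS. Supernatant taken after 20 h for TNFα sandwich ELISA (IL-10 at 2 h).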
(ELISA stands for enzyme-linked immunosorbent assay.)

Where [4] appears, read: monocyte-derived macrophages, LPS 200 ng/mL, supernatant after 20 h, read-out: TNFα EC50.
[5] abbreviates: Homo sapiens, Macrophage, 20 h, monocyte-derived macrophages, LPS 200 ng/mL, supernatant after 20 h, read-out: TNFα EC50.

Like-named read-outs stand apart in the source and are kept apart here.

T2 sequence (Q9Y2K2 whole entry): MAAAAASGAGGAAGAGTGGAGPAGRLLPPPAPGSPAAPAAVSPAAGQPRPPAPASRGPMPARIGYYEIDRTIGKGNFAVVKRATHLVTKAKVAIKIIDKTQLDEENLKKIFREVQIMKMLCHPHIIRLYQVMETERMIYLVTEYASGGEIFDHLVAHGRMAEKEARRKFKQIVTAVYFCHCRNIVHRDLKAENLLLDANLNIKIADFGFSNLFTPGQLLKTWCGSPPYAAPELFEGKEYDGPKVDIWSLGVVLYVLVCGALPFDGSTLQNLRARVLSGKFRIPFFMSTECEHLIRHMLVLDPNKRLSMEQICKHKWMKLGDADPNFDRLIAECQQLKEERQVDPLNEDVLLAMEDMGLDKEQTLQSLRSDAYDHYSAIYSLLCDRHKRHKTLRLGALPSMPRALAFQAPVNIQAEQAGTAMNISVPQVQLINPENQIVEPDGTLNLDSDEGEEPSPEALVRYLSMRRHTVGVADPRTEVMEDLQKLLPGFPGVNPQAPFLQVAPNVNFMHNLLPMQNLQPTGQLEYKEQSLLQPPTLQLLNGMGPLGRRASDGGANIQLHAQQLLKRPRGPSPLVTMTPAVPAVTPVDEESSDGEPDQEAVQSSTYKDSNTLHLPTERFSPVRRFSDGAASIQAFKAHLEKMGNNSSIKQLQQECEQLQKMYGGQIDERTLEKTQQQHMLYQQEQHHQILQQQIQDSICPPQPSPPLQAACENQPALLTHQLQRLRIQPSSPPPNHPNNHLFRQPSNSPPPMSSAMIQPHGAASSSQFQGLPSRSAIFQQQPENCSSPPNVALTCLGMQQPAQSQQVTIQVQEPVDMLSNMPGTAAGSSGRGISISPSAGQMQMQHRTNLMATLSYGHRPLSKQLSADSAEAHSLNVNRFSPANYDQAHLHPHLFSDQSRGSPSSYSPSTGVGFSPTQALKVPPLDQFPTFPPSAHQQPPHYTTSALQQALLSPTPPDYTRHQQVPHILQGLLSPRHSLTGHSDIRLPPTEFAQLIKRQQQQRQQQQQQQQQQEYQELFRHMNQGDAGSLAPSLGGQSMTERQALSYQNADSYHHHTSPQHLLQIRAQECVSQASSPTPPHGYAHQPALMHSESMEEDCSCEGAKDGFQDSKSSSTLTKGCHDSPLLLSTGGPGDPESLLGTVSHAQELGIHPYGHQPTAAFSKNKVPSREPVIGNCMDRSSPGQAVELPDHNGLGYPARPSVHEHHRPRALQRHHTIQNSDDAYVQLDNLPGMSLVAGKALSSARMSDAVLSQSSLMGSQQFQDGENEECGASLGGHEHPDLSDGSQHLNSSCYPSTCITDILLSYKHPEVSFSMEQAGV
T1 sequence (Q9H0K1 whole entry): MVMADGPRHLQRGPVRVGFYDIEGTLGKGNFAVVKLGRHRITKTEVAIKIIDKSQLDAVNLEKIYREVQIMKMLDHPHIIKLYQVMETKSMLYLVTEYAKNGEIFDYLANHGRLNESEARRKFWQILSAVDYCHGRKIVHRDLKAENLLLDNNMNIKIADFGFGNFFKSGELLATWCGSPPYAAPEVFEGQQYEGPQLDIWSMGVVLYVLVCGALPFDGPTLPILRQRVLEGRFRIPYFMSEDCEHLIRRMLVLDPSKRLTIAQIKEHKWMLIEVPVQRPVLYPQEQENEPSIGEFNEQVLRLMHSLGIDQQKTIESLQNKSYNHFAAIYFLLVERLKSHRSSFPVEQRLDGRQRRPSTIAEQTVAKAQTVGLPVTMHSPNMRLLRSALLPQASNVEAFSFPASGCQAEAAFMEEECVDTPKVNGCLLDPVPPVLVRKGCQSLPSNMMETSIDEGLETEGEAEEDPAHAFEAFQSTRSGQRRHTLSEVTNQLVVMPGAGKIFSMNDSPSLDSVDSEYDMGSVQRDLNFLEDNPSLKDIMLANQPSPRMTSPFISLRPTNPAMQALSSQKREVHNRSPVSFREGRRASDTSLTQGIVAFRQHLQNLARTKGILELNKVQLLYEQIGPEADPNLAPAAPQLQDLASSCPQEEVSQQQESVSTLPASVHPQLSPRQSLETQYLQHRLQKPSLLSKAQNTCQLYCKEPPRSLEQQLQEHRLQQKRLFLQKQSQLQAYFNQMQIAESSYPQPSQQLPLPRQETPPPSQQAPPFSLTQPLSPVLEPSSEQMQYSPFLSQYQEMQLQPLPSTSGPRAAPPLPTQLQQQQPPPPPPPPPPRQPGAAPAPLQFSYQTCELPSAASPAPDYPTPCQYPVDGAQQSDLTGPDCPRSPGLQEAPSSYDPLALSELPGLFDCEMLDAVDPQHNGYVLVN

Consider `COc1cc(-c2cnc3cc(OCC(O)CN4CCOCC4)ccn23)cc(OC(F)F)c1C(=O)NC1CC1` (single isomer, unassigned) [Cpd 386, N-cyclopropyl-2-(difluoromethoxy)-4-[7-(2-hydroxy-3-morpholino-propoxy)imidazo[1,2-a]pyridin-3-yl]-6-methoxy-benzamide], for which the 50% inhibitory concentration (IC50) in test [1] and in test [2] was 0.01 to 10 nM in each case. Besides, in test [3] (setting [4]), the EC50 lay within 100 to 1000 nM.
Consider `COc1cc(-c2cnc3cc(OC[C@H]4COCCO4)ccn23)cc2c1C(=O)N(CC(F)F)CC2` [compound 219, 2-(2,2-difluoroethyl)-6-[7-[[(2R)-1,4-dioxan-2-yl]methoxy]imidazo[1,2-a]pyridin-3-yl]-8-methoxy-3,4-dihydroisoquinolin-1-one], for which the IC50 in test [1] and in test [2] was 0.01 to 10 nM in each case. Also, in test [3] (setting [5]), the EC50 was in the range of 1000 to 5000 nM.
For `COc1cc(-c2cnc3cc(OCC4CN(C)C4)ccn23)cc(OC(F)F)c1C(=O)NC1CC1` [Cpd 14, N-cyclopropyl-2-(difluoromethoxy)-6-methoxy-4-[7-[(1-methylazetidin-3-yl)methoxy]imidazo[1,2-a]pyridin-3-yl]benzamide], the concentration for half-maximal inhibition (IC50) in test [1] and in test [2] was 0.01 to 10 nM each time. The 50% effective concentration (EC50) in test [3] (setting [5]) was in the range of 100 to 1000 nM.
Take `COc1cc(-c2cnc3cc(OCc4nncn4C)ccn23)cc(OC(F)F)c1C(=O)NC1CC1` [compound 227, N-cyclopropyl-2-(difluoromethoxy)-6-methoxy-4-[7-[(4-methyl-1,2,4-triazol-3-yl)methoxy]imidazo[1,2-a]pyridin-3-yl]benzamide]: the IC50 in test [1] and in test [2] was 0.01 to 10 nM throughout. The EC50 in test [3] (setting [5]) was > 5000 nM.
For `COc1cc(-c2cnc3cc(OC[C@H]4COCCO4)ccn23)cc2c1C(=O)NCC2` [compound 242, 6-[7-[[(2R)-1,4-dioxan-2-yl]methoxy]imidazo[1,2-a]pyridin-3-yl]-8-methoxy-3,4-dihydro-2H-isoquinolin-1-one], the concentration for half-maximal inhibition (IC50) in test [1] and in test [2] was 0.01 to 10 nM in each case. The EC50 in test [3] (setting [5]) lay within 100 to 1000 nM.
On to `COc1cc(-c2cnc3cc(OCCN4CCCCC4)ccn23)cc2c1C(=O)N(CC(F)(F)F)CC2` [compound 40, 8-methoxy-6-[7-[2-(1-piperidyl)ethoxy]imidazo [1,2-a]pyridin-3-yl]-2-(2,2,2-trifluoroethyl)-3,4-dihydroisoquinolin-1-one], for which the IC50 in test [1] and in test [2] was 0.01 to 10 nM each time. For the same compound, in test [3] (setting [5]), the EC50 lay in the range of 100 to 1000 nM.
As to `COc1cc(-c2cnc3cc(OCCOCCN4CCCCC4)ccn23)cc(OC(F)F)c1C(=O)NC1CC1` [compound 305], the IC50 in test [1] and in test [2] was 0.01 to 10 nM throughout. In test [3] (setting [5]), the half-maximal effective concentration (EC50) lay within 100 to 1000 nM.
For `COc1cc(-c2cnc3cc(OCCCN4CC(O)C4)ccn23)cc(OC(F)F)c1C(=O)NC1CC1` [Cpd 286, N-cyclopropyl-2-(difluoromethoxy)-4-[7-[3-(3-hydroxyazetidin-1-yl)propoxy]imidazo[1,2-a]pyridin-3-yl]-6-methoxy-benzamide], the half-inhibitory concentration (IC50) in test [1] and in test [2] was 0.01 to 10 nM throughout. Moreover, the EC50 in test [3] (setting [5]) is 1000 to 5000 nM.
On to `COc1cc(-c2cnc3cc(OCCCN4CCC5(CC4)CN(C)C(=O)O5)ccn23)cc(OC(F)F)c1C(=O)NC1CC1` [compound 325, N-cyclopropyl-2-(difluoromethoxy)-6-methoxy-4-[7-[3-(3-methyl-2-oxo-1-oxa-3,8-diazaspiro[4.5]decan-8-yl)propoxy]imidazo[1,2-a]pyridin-3-yl]benzamide], for which the 50% inhibitory concentration (IC50) in test [1] and in test [2] was 0.01 to 10 nM throughout. Besides, the half-maximal effective concentration (EC50) in test [3] (setting [5]) lay within 0.1 to 100 nM.
With `COc1cc(-c2cnc3cc(OCCN(C)C)ccn23)cc(OC(F)F)c1C(=O)NCC(F)(F)F` [compound 166, 2-(difluoromethoxy)-4-[7-[2-(dimethylamino)ethoxy]imidazo[1,2-a]pyridin-3-yl]-6-methoxy-N-(2,2,2-trifluoroethyl)benzamide], the half-inhibitory concentration (IC50) in test [1] and in test [2] was 0.01 to 10 nM in each case. For the same compound, the EC50 in test [3] (setting [5]) was 100 to 1000 nM.
With `COc1cc(-c2cnc3cc(OCC4CN(C)CCO4)ccn23)cc2c1C(=O)N(CC(F)(F)F)CC2` (stereo not shown) [compound 127, 8-methoxy-6-[7-[(4-methylmorpholin-2-yl)methoxy]imidazo[1,2-a]pyridin-3-yl]-2-(2,2,2-trifluoroethyl)-3,4-dihydroisoquinolin-1-one], the concentration for half-maximal inhibition (IC50) in test [1] and in test [2] was 0.01 to 10 nM each time. Also, the EC50 in test [3] (setting [5]) lay in the range of 100 to 1000 nM.
For the compound `COc1cc(-c2cnc3cc(OCCN4CCN(C)CC4)ccn23)cc(OC(F)F)c1C(=O)NC1CC1` [compound 9, N-cyclopropyl-2-(difluoromethoxy)-6-methoxy-4-[7-[2-(4-methylpiperazin-1-yl)ethoxy]imidazo[1,2-a]pyridin-3-yl]benzamide], the 50% inhibitory concentration (IC50) in test [1] and in test [2] was 0.01 to 10 nM each time. Moreover, in test [3] (setting [5]), the EC50 fell in the range of 100 to 1000 nM.
Consider `COc1cc(-c2cnc3cc(OCCCN4CCC4)ccn23)cc(OC(F)F)c1C(=O)NC1CC1` [compound 274, 4-[7-[3-(azetidin-1-yl)propoxy]imidazo[1,2-a]pyridin-3-yl]-N-cyclopropyl-2-(difluoromethoxy)-6-methoxy-benzamide], for which the IC50 in test [1] and in test [2] was 0.01 to 10 nM throughout. The EC50 in test [3] (setting [5]) was in the range of 100 to 1000 nM.
In the case of `COc1cc(-c2cnc3cc(OCCC4CCCN4C)ccn23)cc(OC(F)F)c1C(=O)NC1CC1` (stereo not shown) [compound 17, N-cyclopropyl-2-(difluoromethoxy)-6-methoxy-4-[7-[2-(1-methylpyrrolidin-2-yl)ethoxy]imidazo[1,2-a]pyridin-3-yl]benzamide], the 50% inhibitory concentration (IC50) in test [1] and in test [2] was 0.01 to 10 nM each time. Further, the concentration giving a half-maximal response (EC50) in test [3] (setting [5]) is 0.1 to 100 nM.
On to `CCOC(=O)C1(F)CCN(CC(O)COc2ccn3c(-c4cc(OC)c(C(=O)NC5CC5)c(OC(F)F)c4)cnc3c2)CC1` (stereo not shown) [compound 384, ethyl 1-[3-[3-[4-(cyclopropylcarbamoyl)-3-(difluoromethoxy)-5-methoxy-phenyl]imidazo[1,2-a]pyridin-7-yl]oxy-2-hydroxy-propyl]-4-fluoro-piperidine-4-carboxylate], for which the half-inhibitory concentration (IC50) in test [1] and in test [2] was 0.01 to 10 nM in each case. Further, the concentration giving a half-maximal response (EC50) in test [3] (setting [5]) was in the range of 0.1 to 100 nM.
For `COc1cc(-c2cnc3cc(OCCN4CCN(C(C)C)CC4)ccn23)cc(OC(F)F)c1C(=O)NC1CC1` [compound 276, N-cyclopropyl-2-(difluoromethoxy)-4-[7-[2-(4-isopropylpiperazin-1-yl)ethoxy]imidazo[1,2-a]pyridin-3-yl]-6-methoxy-benzamide], the half-inhibitory concentration (IC50) in test [1] and in test [2] was 0.01 to 10 nM throughout. Further, in test [3] (setting [5]), the EC50 was 100 to 1000 nM.
With `COc1cc(-c2cnc3cc(OCC(C)(C)N)ccn23)cc(OC(F)F)c1C(=O)NC1CC1` [compound 104, 4-[7-(2-amino-2-methyl-propoxy)imidazo[1,2-a]pyridin-3-yl]-N-cyclopropyl-2-(difluoromethoxy)-6-methoxy-benzamide], the half-inhibitory concentration (IC50) in test [1] and in test [2] was 0.01 to 10 nM each time. The EC50 in test [3] (setting [5]) lay in the range of 1000 to 5000 nM.
In the case of `COc1cc(-c2cnc3cc(OCCN)ccn23)cc(OC(F)F)c1C(=O)NC1CC1` [compound 118, 4-[7-(2-aminoethoxy)imidazo[1,2-a]pyridin-3-yl]-N-cyclopropyl-2-(difluoromethoxy)-6-methoxy-benzamide], the IC50 in test [1] and in test [2] was 0.01 to 10 nM throughout. Moreover, the EC50 in test [3] (setting [5]) lay in the range of 100 to 1000 nM.
On to `COc1cc(-c2cnc3cc(OCC4CN(C)C4)ccn23)cc2c1C(=O)N(CC(F)(F)F)CC2` [compound 39, 8-methoxy-6-[7-[(1-methylazetidin-3-yl)methoxy]imidazo[1,2-a]pyridin-3-yl]-2-(2,2,2-trifluoroethyl)-3,4-dihydro isoquinolin-1-one], for which the IC50 in test [1] and in test [2] was 0.01 to 10 nM each time. Further, the EC50 in test [3] (setting [5]) lay in the range of 100 to 1000 nM.
As for `CCN(CC)CCOc1ccn2c(-c3cc(OC)c(C(=O)NC4CC4)c(OC(F)F)c3)cnc2c1` [compound 107, N-cyclopropyl-4-[7-[2-(diethylamino)ethoxy]imidazo[1,2-a]pyridin-3-yl]-2-(difluoromethoxy)-6-methoxy-benzamide], the half-maximal inhibitory concentration (IC50) in test [1] and in test [2] was 0.01 to 10 nM throughout. In addition, the EC50 in test [3] (setting [5]) was 100 to 1000 nM.
Regarding `COc1cc(-c2cnc3cc(OCC4CCCCN4C)ccn23)cc(OC(F)F)c1C(=O)NC1CC1` (stereo not shown) [compound 23, N-cyclopropyl-2-(difluoromethoxy)-6-methoxy-4-[7-[(1-methyl-2-piperidyl)methoxy]imidazo[1,2-a]pyridin-3-yl]benzamide], the IC50 in test [1] and in test [2] was 0.01 to 10 nM each time. Besides, in test [3] (setting [5]), the EC50 was 100 to 1000 nM.
Turning to `COc1cc(-c2cnc3cc(OCC(O)CN4CCOCC4)ccn23)cc(OC(F)F)c1C(=O)NC1CC1` (single isomer, unassigned) [Cpd 387, N-cyclopropyl-2-(difluoromethoxy)-4-[7-(2-hydroxy-3-morpholino-propoxy)imidazo[1,2-a]pyridin-3-yl]-6-methoxy-benzamide], the concentration for half-maximal inhibition (IC50) in test [1] and in test [2] was 0.01 to 10 nM in each case. Also, the EC50 in test [3] (setting [4]) fell in the range of 0.1 to 100 nM.
Take `COc1cc(-c2cnc3cc(OCCN4CCOCC4)ccn23)cc2c1C(=O)N(CC(F)(F)F)CC2` [Cpd 88, 8-methoxy-6-[7-(2-morpholinoethoxy)imidazo [1,2-a]pyridin-3-yl]-2-(2,2,2-trifluoroethyl)-3,4-dihydroisoquinolin-1-one]: the half-maximal effective concentration (EC50) in test [3] (Homo sapiens, Macrophage, 20 h, read-out: TNFα EC50 (nM)) lay within 100 to 1000 nM.
